Experiments:
[1] = target: T1, hSSTR4 (Homo sapiens (Human), UniProt P31391); experiment: cAMP assay (inhibition of forskolin-stimulated cAMP) in hSSTR4 expressing H4 cells; format: cell-based; conditions: after being dissolved to free base forms
Description: The activation of the SSTR4 receptor (G coupled) causes an inhibition of intracellular cAMP after stimulation with Forskolin, which can be quantifiable by use of a suitable assay Kit and an adequate plate reader. This technique is used to characterize pharmacological effects of the SSTR4 receptor agonists by use of hSSTR4 expressing H4 cells. The compound is dissolved and diluted in DMSO. The final test solution contains 1% DMSO. The cAMP standard (Lance™ cAMP 384 Kit; PerkinElmer, Cat #AD0264) is prepared in assay buffer (HBSS with 0.1% BSA, 5 mM HEPES, […], pH 7.4) containing 1% DMSO and the cAMP standard curve is included at least on one plate. Cells are centrifuged and suspended in assay buffer (incl. 1:100 diluted Alexa Fluor® antibody). For the assay 5 μL of a cell suspension (approximately 5000 cells/well)-incl. Alexa Fluor® antibody (diluted 1:100) are added into a 384 well MTP microtiter plate excepting one row or column (depending on the plate layout), which is reserved for the standard curve. Then 2 μL of compound sample is added as concentration response curve (e.g., le-5 M to 6e-10 M), usually in triplicates. Each assay contains incubations with vehicle controls instead of compound as controls for non-inhibited cAMP generation (100% CTL; ‘high values’) and incubations with 1 μM Somatostatin as controls for full inhibition and background (0% CTL; ‘low values’). After approximately 10-15 min incubation time 3 μL Forskolin (dissolved in DMSO, final conc. 15 μM) is added. Then the plates are shaken briefly and incubated for 60 min at RT. After 60 min 10 μL of the detection mix is added into all wells followed by an additional incubation period of 1 h. The plates are read in a suitable plate reader. The analysis of the data is based on the “ratio” of the time-resolved fluorescence measurements of donor and acceptor fluorophore (Ex: 320 nm; Em1: 665 nm; Em2: 615 nm; ratio 665/615). From this ratio, cAMP concentrations are calculated from standard curve and the EC50 is estimated by least square curve fit program. […]

[2] = target: T1, hSSTR4; experiment: Radioligand competition binding, membrane homogenate; conditions: after being dissolved to free base forms
Description: In competition experiments, the test compound, which is not labeled, competes with the binding site of a labeled ligand. The displacement of the labeled ligand by the test compound leads to a decreased signal. For the binding experiments 200 μL of membrane homogenate from one of the following protein amounts is used: hSSTR1 (40 μg/well); hSSTR2 (25 μg/well); hSSTR3 (1.5 μg/well); hSSTR4 (0.5 μg/well); hSSTR5 (25 μg/well). The homogenate is incubated with 0.05 nM of radioligand ([3-125I-Tyr]-Somatostatin-(1-14)) in addition to increasing concentrations of a test compound or vehicle (100% binding) in a total volume of 250 μL using a Hepes buffer (10 mM, EDTA 1 mM, MgCl2 5 mM, pH 7.6, BSA 0.5%, Bacitracin 0.003%, DMSO 1%) for 180 min at RT. The incubation is terminated by filtration with ice cold NaCl 0.9% through polyethyleneimine treated (0.3%) grade GF/B glass fiber filters using a cell harvester. The protein-bound radioactivity is measured in a suitable reader. The non-specific binding is defined as radioactivity bound in the presence of 1 μM Somatostatin-14 during the incubation period. The analysis of the concentration-binding curves is performed by computer-assisted nonlinear least square curve fitting method using the model of one receptor binding site.

T1 sequence (P31391 whole entry): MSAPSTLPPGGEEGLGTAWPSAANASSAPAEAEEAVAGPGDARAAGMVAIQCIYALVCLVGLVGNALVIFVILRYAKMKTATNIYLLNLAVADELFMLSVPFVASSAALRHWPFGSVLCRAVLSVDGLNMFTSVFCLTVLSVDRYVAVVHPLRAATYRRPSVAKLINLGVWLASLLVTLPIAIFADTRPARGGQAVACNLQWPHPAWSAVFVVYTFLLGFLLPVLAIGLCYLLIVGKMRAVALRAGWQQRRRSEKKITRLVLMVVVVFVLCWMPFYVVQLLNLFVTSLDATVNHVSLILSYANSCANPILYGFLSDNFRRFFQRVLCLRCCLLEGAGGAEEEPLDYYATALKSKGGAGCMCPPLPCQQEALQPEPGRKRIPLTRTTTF

Compound	SSTR4 agonism (in words) [1]	Selectivity of binding to SSTR4 over SSTR1, SSTR2, SSTR3 and SSTR5 (in words) [2]
Cc1cccnc1OCC(C)(C)NC(=O)[C@H]1[C@@H]2CNC[C@@H]21.O=C(O)CC(O)(CC(=O)O)C(=O)O [Example 2, (1S,5R)-(1α,5α,6α)-N-[1,1-dimethyl-2-[(3-methyl-2-pyridyl)oxy]ethyl]-3-azabicyclo[3.1.0]hexane-6-carboxamide citrate]	agonists of SSTR4	selectively bind to SSTR4
Cc1cccnc1OCC(C)(C)NC(=O)[C@H]1[C@@H]2CNC[C@@H]21.O=C(O)C(O)C(O)C(=O)O [Example 1, (1S,5R)-(1α,5α,6α)-N-[1,1-dimethyl-2-[(3-methyl-2-pyridyl)oxy]ethyl]-3-azabicyclo[3.1.0]hexane-6-carboxamide L-tartrate sesquihydrate]	agonists of SSTR4	selectively bind to SSTR4
Cc1cccnc1OCC(C)(C)NC(=O)[C@H]1[C@@H]2CNC[C@@H]21.O=C(O)C[C@H](O)C(=O)O [Example 3, (1S,5R)-(1α,5α,6α)-N-[1,1-dimethyl-2-[(3-methyl-2-pyridyl)oxy]ethyl]-3-azabicyclo[3.1.0]hexane-6-carboxamide L-malate]	agonists of SSTR4	selectively bind to SSTR4

— patent US11834435B2, “SSTR4 agonist salts” (Eli Lilly and Company, priority 2021, dated 2023)
